The record followed here is patent US8134015B2, “Compound inhibiting in vivo phosphorous transport and medicine containing the same” (Kyowa Hakko Kirin Co., Ltd., priority 2003, dated 2012).

For the experiment, the target named is T1, rat NaPi-2b (Rattus norvegicus, UniProt Q9JJ09).
T1 construct: expressed in transfected cells; host or cells: Xenopus oocytes injected with cRNA
T1 sequence (Q9JJ09 1-695): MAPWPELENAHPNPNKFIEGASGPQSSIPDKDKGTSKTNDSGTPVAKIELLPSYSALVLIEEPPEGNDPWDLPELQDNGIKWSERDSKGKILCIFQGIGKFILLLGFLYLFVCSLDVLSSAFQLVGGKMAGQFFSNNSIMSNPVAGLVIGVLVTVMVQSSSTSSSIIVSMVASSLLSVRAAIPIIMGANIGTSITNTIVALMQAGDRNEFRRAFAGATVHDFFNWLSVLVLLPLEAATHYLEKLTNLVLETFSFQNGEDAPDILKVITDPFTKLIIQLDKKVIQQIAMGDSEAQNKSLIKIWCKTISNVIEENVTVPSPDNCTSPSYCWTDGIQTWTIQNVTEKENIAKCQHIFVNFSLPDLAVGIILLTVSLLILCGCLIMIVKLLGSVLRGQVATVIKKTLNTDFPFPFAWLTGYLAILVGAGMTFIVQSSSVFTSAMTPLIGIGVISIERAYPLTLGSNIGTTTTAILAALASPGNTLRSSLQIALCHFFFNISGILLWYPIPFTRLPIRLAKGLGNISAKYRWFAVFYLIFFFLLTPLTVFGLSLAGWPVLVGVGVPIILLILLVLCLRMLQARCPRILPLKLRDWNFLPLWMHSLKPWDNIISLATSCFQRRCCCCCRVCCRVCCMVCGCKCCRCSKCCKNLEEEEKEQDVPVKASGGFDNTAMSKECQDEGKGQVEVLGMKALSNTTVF
As to the kind of experiment: Sodium-dependent phosphate uptake of Xenopus oocytes which expressed NaPi-2b (32P). In kind it is cell-based. Conditions: for IC50: Xenopus oocytes expressing rat NaPi-2b, 32P radioactive phosphorus, read-out: IC50 (phosphate uptake inhibitory activity). Summed up: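 Oocytes injected with rat NaPi-2b cRNA, cultured 2 d, then 32P uptake measured with compound. Values: % inhibition at 300 and 100 μM, both from one inhibition curve.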

Some results are limits rather than exact numbers.

The IC50 is the concentration needed to halve the response being measured. One may read the inhibition as the relative decrease from the control value, in per cent. A low value points to little suppression.

With `COc1ccc(/C=N/NC(=O)c2cc(Br)ccc2NC(=O)c2ccc(OC)c(OC)c2)cc1Br` [Compound 97, N-[4-Bromo-2-(3-bromo-4-methoxy-benzylidene-hydrazinocarbonyl)-phenyl]-3,4-dimethoxy-benzamide], the IC50 amounted to 0.51 µM.

For the compound `COc1ccc(/C=N/NC(=O)c2cc(Cl)ccc2NC(=O)c2ccc(OC)c(OC)c2)cc1Br` [Compound 98, N-[2-(3-Bromo-4-methoxy-benzylidene-hydrazinocarbonyl)-4-chloro-phenyl]-3,4-dimethoxy-benzamide], the IC50 amounted to 0.62 µM.

On to `COc1cc(OC)cc(C(=O)Nc2ccccc2C(=O)N/N=C/c2ccc(OC)c(Br)c2)c1` [Compound 99, N-[2-(3-Bromo-4-methoxy-benzylidene-hydrazinocarbonyl)-phenyl]-3,5-dimethoxy-benzamide], for which the IC50 came to 3.03 µM.

As to `COc1ccc(C(=O)Nc2ccccc2C(=O)N/N=C/c2ccc(OC)c(Br)c2)cc1` [Compound 100, N-[2-(3-Bromo-4-methoxy-benzylidene-hydrazinocarbonyl)-phenyl]-4-methoxy-benzamide], the IC50 worked out at 0.64 µM.

Take `COc1ccc(/C=N/NC(=O)c2ccccc2NC(=O)c2cccc(F)c2)cc1Br` [Compound 101, N-[2-(3-Bromo-4-methoxy-benzylidene-hydrazinocarbonyl)-phenyl]-3-fluoro-benzamide]: the IC50 was found to be 0.75 µM.

`COc1ccc(/C=N/NC(=O)c2ccccc2NC(=O)c2ccc(F)cc2)cc1Br` [Compound 102, N-[2-(3-Bromo-4-methoxy-benzylidene-hydrazinocarbonyl)-phenyl]-4-fluoro-benzamide]: the IC50 worked out at 5.58 µM.

Turning to `COc1ccc(C(=O)Nc2ccccc2C(=O)N/N=C/c2cccc([N+](=O)[O-])c2)cc1OC` [Compound 103, 3,4-Dimethoxy-N-[2-(3-nitro-benzylidene-hydrazinocarbonyl)-phenyl]-benzamide], the IC50 is 5.73 µM.

Take `COc1ccc(C(=O)Nc2ccccc2C(=O)N/N=C/c2ccc(N(C)C)cc2)cc1OC` [Compound 104, N-[2-(4-Dimethylamino-benzylidene-hydrazinocarbonyl)-phenyl]-3,4-dimethoxy-benzamide]: the IC50 was 11.3 µM.

On to `O=C(Nc1ccc(Br)cc1C(=O)N/N=C/c1cccc(F)c1)c1ccc(F)cc1` [Compound 105, N-[4-Bromo-2-(3-fluoro-benzylidene-hydrazinocarbonyl)-phenyl]-4-fluoro-benzamide], for which the IC50 came out at 7.29 µM.

As for `O=C(Nc1ccc(Br)cc1C(=O)N/N=C/c1ccc(F)cc1)c1ccc(F)cc1` [Compound 106, N-[4-Bromo-2-(4-fluoro-benzylidene-hydrazinocarbonyl)-phenyl]-4-fluoro-benzamide], the IC50 came out at 5.11 µM.

With `O=C(Nc1ccc(Br)cc1C(=O)N/N=C/c1cccc(Cl)c1)c1ccc(F)cc1` [Compound 107, N-[4-Bromo-2-(3-chloro-benzylidene-hydrazinocarbonyl)-phenyl]-4-fluoro-benzamide], the IC50 stood at 1.08 µM.

With `O=C(Nc1ccc(Br)cc1C(=O)N/N=C/c1ccc(Cl)cc1)c1ccc(F)cc1` [Compound 108, N-[4-Bromo-2-(4-chloro-benzylidene-hydrazinocarbonyl)-phenyl]-4-fluoro-benzamide], the IC50 was found to be 3.83 µM.

In the case of `O=C(Nc1ccc(Br)cc1C(=O)N/N=C/c1cccc(O)c1)c1ccc(F)cc1` [Compound 109, N-[4-Bromo-2-(3-hydroxy-benzylidene-hydrazinocarbonyl)-phenyl]-4-fluoro-benzamide], the IC50 worked out at 6.18 µM.

On to `COc1ccc(C(=O)Nc2ccc(Br)cc2C(=O)N/N=C/c2cccnc2)cc1OC` [Compound 110, N-[4-Bromo-2-(pyridin-3-ylmethylene-hydrazinocarbonyl)-phenyl]-3,4-dimethoxy-benzamide], for which the IC50 amounted to 7.7 µM.

As for `COc1ccc(C(=O)Nc2ccc(Cl)cc2C(=O)N/N=C/c2cccnc2)cc1OC` [Compound 111, N-[4-Chloro-2-(pyridin-3-ylmethylene-hydrazinocarbonyl)-phenyl]-3,4-dimethoxy-benzamide], the IC50 worked out at 9.12 µM.

As for `COc1ccc(C(=O)Nc2ccccc2C(=O)N/N=C/c2cccnc2)cc1` [Compound 112, 4-Methoxy-N-[2-(pyridin-3-ylmethylene-hydrazinocarbonyl)-phenyl]-benzamide], the IC50 turned out to be 42 µM.

Regarding `O=C(Nc1ccccc1C(=O)N/N=C/c1cccnc1)c1ccc(F)cc1` [Compound 113, 4-Fluoro-N-[2-(pyridin-3-ylmethylene-hydrazinocarbonyl)-phenyl]-benzamide], the IC50 was 17.9 µM.

For `COc1cc(OC)cc(C(=O)Nc2ccc(Br)cc2C(=O)N/N=C/c2cccc(F)c2)c1` [Compound 114, N-[4-Bromo-2-(3-fluoro-benzylidene-hydrazinocarbonyl)-phenyl]-3,5-dimethoxy-benzamide], the IC50 stood at 2.55 µM.

In the case of `COc1cc(OC)cc(C(=O)Nc2ccc(Br)cc2C(=O)N/N=C/c2ccc(F)cc2)c1` [Compound 115, N-[4-Bromo-2-(4-fluoro-benzylidene-hydrazinocarbonyl)-phenyl]-3,5-dimethoxy-benzamide], the IC50 stood at 5.48 µM.

For `COc1cc(OC)cc(C(=O)Nc2ccc(Br)cc2C(=O)N/N=C/c2cccc(Cl)c2)c1` [Compound 116, N-[4-Bromo-2-(3-chloro-benzylidene-hydrazinocarbonyl)-phenyl]-3,5-dimethoxy-benzamide], the IC50 was 7.01 µM.

`COc1cc(OC)cc(C(=O)Nc2ccc(Br)cc2C(=O)N/N=C/c2ccc(Cl)cc2)c1` [Compound 117, N-[4-Bromo-2-(4-chloro-benzylidene-hydrazinocarbonyl)-phenyl]-3,5-dimethoxy-benzamide]: the IC50 worked out at 0.58 µM.

Turning to `COc1cc(OC)cc(C(=O)Nc2ccc(Br)cc2C(=O)NN=Cc2cccc(C)c2)c1` [Compound 118, N-[4-Bromo-2-(3-methyl-benzylidene-hydrazinocarbonyl)-phenyl]-3,5-dimethoxy-benzamide], the IC50 was determined as 6.07 µM.

In the case of `COc1cc(OC)cc(C(=O)Nc2ccc(Br)cc2C(=O)N/N=C/c2ccc(C)cc2)c1` [Compound 119, N-[4-Bromo-2-(4-methyl-benzylidene-hydrazinocarbonyl)-phenyl]-3,5-dimethoxy-benzamide], the IC50 was 0.74 µM.

On to `O=C(Nc1ccccc1C(=O)N/N=C/c1cccc(F)c1)c1cccc(OC(F)(F)F)c1` [Compound 120], for which the IC50 was 2.55 µM.

Consider `O=C(Nc1ccccc1C(=O)N/N=C/c1ccc(F)cc1)c1cccc(OC(F)(F)F)c1` [Compound 121], for which the IC50 came out at 4.06 µM.

Regarding `O=C(Nc1ccccc1C(=O)N/N=C/c1cccc(Cl)c1)c1cccc(OC(F)(F)F)c1` [Compound 122], the IC50 was below 3 µM.

For the compound `O=C(Nc1ccccc1C(=O)N/N=C/c1ccc(Cl)cc1)c1cccc(OC(F)(F)F)c1` [Compound 123], the IC50 was determined as 3.77 µM.

For `Cc1ccc(/C=N/NC(=O)c2ccccc2NC(=O)c2cccc(OC(F)(F)F)c2)cc1` [Compound 124], the concentration for half-maximal inhibition (IC50) is 3.15 µM.

Turning to `COc1ccc(C(=O)Nc2ccc(OCCCN(C)C)cc2C(=O)N/N=C/c2ccc(F)cc2)cc1OC` [Compound 125, N-[4-(3-Dimethylamino-propoxy)-2-(4-fluoro-benzylidene-hydrazinocarbonyl)-phenyl]-3,4-dimethoxy-benzamide], the IC50 stood at 136 µM.

On to `COc1ccc(/C=N/NC(=O)c2cc(Cl)ccc2NC(=O)c2ccc(OC)c(OC)c2)cc1OC` [Compound 126, N-[4-Chloro-2-(3,4-dimethoxy-benzylidene-hydrazinocarbonyl)-phenyl]-3,4-dimethoxy-benzamide], for which the IC50 was 6.43 µM.

Regarding `COc1ccc(/C=N/NC(=O)c2cc(Br)ccc2NC(=O)c2ccc(OC)c(OC)c2)cc1OC` [Compound 127, N-[4-Bromo-2-(3,4-dimethoxy-benzylidene-hydrazinocarbonyl)-phenyl]-3,4-dimethoxy-benzamide], the IC50 came to 11.6 µM.

With `COc1cc(OC)cc(C(=O)Nc2ccc(Br)cc2C(=O)N/N=C/c2ccc(OC)c(OC)c2)c1` [Compound 128, N-[4-Bromo-2-(3,4-dimethoxy-benzylidene-hydrazinocarbonyl)-phenyl]-3,5-dimethoxy-benzamide], the IC50 was 11.6 µM.

As for `O=C(Nc1ccccc1C(=O)N/N=C/c1cccc(F)c1)c1cccnc1` [Compound 129, N-[2-(3-Fluoro-benzylidene-hydrazinocarbonyl)-phenyl]-nicotinamide], the IC50 came out at 13.7 µM.

`Cc1cccc(/C=N/NC(=O)c2ccccc2NC(=O)c2cccnc2)c1` [Compound 131, N-[2-(3-Methyl-benzylidene-hydrazinocarbonyl)-phenyl]-nicotinamide] registered an inhibition at 300 µM (phosphate uptake, oocytes expressing rat NaPi-2b, 300 μM, determined from inhibition curve) of 32.4%.

As for `Cc1ccc(/C=N/NC(=O)c2ccccc2NC(=O)c2cccnc2)cc1` [Compound 132, N-[2-(4-Methyl-benzylidene-hydrazinocarbonyl)-phenyl]-nicotinamide], the IC50 was determined as 0.75 µM.
